In patent US5840750A, “Discodermolide compounds” (priority 1996, dated 1998):
Like-named read-outs stand apart in the source and are kept apart here.

What was measured:
[1] = Constitutive proliferation of human non-lymphoid normal (foreskin) fibroblasts; conditions: human, foreskin fibroblasts
Normal Fibroblast = assay: as above
HCC-2998 = assay: NCI in vitro tumor cell line panel, LC50, colon cancer; type: cell-based; conditions: human colon cancer (HCC-2998)
Source text: (§1) Discodermolide was additionally evaluated for its anti-proliferative effects utilizing the National Cancer Institute's in vitro tumor cell line panel. The results of these analyses are shown in the mean graphs presented as FIGS. 1A-1K. The data are presented using known and accepted measurements of "Growth Inhibition-50" (GI50), where growth of 50% of the cells is inhibited; "Total Growth Inhibition" (TGI), where growth of all cells is inhibited, i.e., cytostasis; and "Lethal Concentration-50" (LC50), where 50% of the cells are killed.

COLO 205 = assay: as above; type: cell-based; conditions: human colon cancer (COLO 205)
Source text: as §1

NCI-H23 = assay: NCI in vitro tumor cell line panel, LC50, non-small cell lung cancer; type: cell-based; conditions: human non-small cell lung cancer (NCI-H23)
Source text: as §1

SF 295 = assay: NCI in vitro tumor cell line panel, LC50, CNS cancer; type: cell-based, human
Source text: as §1

SF 539 = assay: as above; type: cell-based, human
Source text: as §1

Swiss 3TC = assay: Constitutive proliferation of murine non-lymphoid Swiss 3TC cells; type: cell-based
Source text: (§7) The effects of discodermolide on the inhibition of constitutive proliferation of a number of lymphoid and non-lymphoid cell lines of mouse or human origin was investigated.

MDA-N = assay: NCI in vitro tumor cell line panel, LC50, breast cancer; type: cell-based, human
Source text: as §1

MDA-MB-435 = assay: as above; type: cell-based, human
Source text: as §1

BMSC 8.6 = assay: Constitutive proliferation of murine non-lymphoid BMSC 8.6 cells; type: cell-based
Source text: (§2) ^d Bone marrow stromal cells (MBSC) derived from CS7BL/6 mice.

M14 = assay: NCI in vitro tumor cell line panel, LC50, melanoma; type: cell-based; conditions: human melanoma (M14)
Source text: as §1

BMSC 25.4 = assay: Constitutive proliferation of murine non-lymphoid BMSC 25.4 cells; type: cell-based
Source text: as §2

tubulin [2] = assay: Assembly of tubulin without MAPs or GTP; type: biochemical
Experimental: Discodermolide was analyzed for its interactions with tubulin. Tubulin polymerization was monitored turbidimetrically at 350 nm with an electronic temperature controller. Reaction mixtures contained 0.1M 4-morpholine-ethanesulfonate (pH 6.9), 1.0 mg/ml (10 μM) electrophoretically-homogenous bovine brain tubulin freed of unbound nucleotide by gel filtration, […], and 4% (v/v) dimethylsulfoxide. A concentration of 10 μM of discodermolide (curve 3) was compared with the same concentration of taxol (curve 2) and no drug (curve 1), as shown in FIG. 5.

EL-4 Thymoma = assay: Constitutive proliferation of murine lymphoid EL-4 thymoma cells; type: cell-based; conditions: Mus musculus; EL-4 Thymoma proliferation; best response
Source text: as §7

BMSC 8.3 = assay: Constitutive proliferation of murine non-lymphoid BMSC 8.3 cells; type: cell-based
Source text: as §2

tubulin [3] = assay: Electron micrographs of polymers of tubulin; type: biochemical; conditions: compared with control
tubulin [4] = assay: EC50 for the polymerization of tubulin; type: biochemical; conditions: additional studies
Experimental: (§3) Discodermolide was analyzed for its interactions with tubulin. Tubulin polymerization was monitored turbidimetrically at 350 nm with an electronic temperature controller. Reaction mixtures contained 0.1M 4-morpholine-ethanesulfonate (pH 6.9), 1.0 mg/ml (10 μM) electrophoretically-homogenous bovine brain tubulin freed of unbound nucleotide by gel filtration, 0.5 mg/ml heat-treated MAPs, 100 μM GTP, and 4% (v/v) dimethylsulfoxide. A concentration of 10 μM of discodermolide (curve 3) was compared with the same concentration of taxol (curve 2) and no drug (curve 1), as shown in FIG. 5.

human tumor cell lines = assay: National Cancer Institute's in vitro tumor cell line panel; type: cell-based
Source text: as §1

[5] = tested on: MCF-7 cells and MDA-MB-231 cells; assay: Growth of human breast carcinoma cells; type: cell-based; conditions: Breast carcinoma cell, results similar for both lines (MCF-7, MDA-MB-231)
Experimental: (§4) The effect of discodermolide on two human breast carcinoma cell lines, estrogen receptor positive MCF-7 cells, and estrogen receptor negative MDA-MB-231 cells, was determined. The results were compared with those obtained by treatment with taxol. Both lines were examined for drug effects on growth and by indirect immunofluorescence for effects on the microtubule cytoskeleton. The results were similar for both lines. […] These patterns appeared at concentrations as low as 10 nm.

[6] = tested on: microtubule cytoskeleton in MCF-7 cells and MDA-MB-231 cells; assay: Indirect immunofluorescence for effects on the microtubule cytoskeleton of human breast carcinoma cells; type: cell-based; conditions: for minimal effective concentration: Homo sapiens, Breast carcinoma cell
Experimental: as §4

bovine brain tubulin = assay: Tubulin polymerization monitored turbidimetrically; type: biochemical; conditions: for temperature at which tubulin polymerization/assembly began: 10 μM tubulin, MAPs, GTP, control 37° C.; for stability of assembly upon return of the mixture to 0° C.: control disassembled
Experimental: as §3

70Z/3 Pre-B = assay: Constitutive proliferation of murine lymphoid 70Z/3 Pre-B cells; type: cell-based; conditions: Mus musculus; 70Z/3 Pre-B proliferation; best response
Source text: as §7

F7 Fibroblast = assay: Constitutive proliferation of murine non-lymphoid F7 fibroblasts; type: cell-based; conditions: Mus musculus, best response
Source text: as §7

[7] = tested on: murine lymphoid and non-lymphoid cell lines; assay: Constitutive proliferation of murine lymphoid and non-lymphoid cell lines (summary); type: cell-based; conditions: Mus musculus, read-out: IC50 values, range over murine cell lines
Source text: as §7

[8] = tested on: Jurkat human leukemia cells; assay: Cell cycle analysis of Jurkat human leukemia cells; type: cell-based; conditions: 48 hours, discodermolide 100 ng/ml; for percentage of cells in G2 /M: control 7%; for percentage of S-phase cells: control 25%; for percentage of cells in G1: control 68%
Experimental: Discodermolide and taxol were compared for their effects on the proliferation of Jurkat human leukemia cells. Cell cultures were similarly initiated in the presence and absence of various concentrations of discodermolide or taxol and incubated at 37° C. in 10% CO2 in air for 48 hours. Cells were harvested and stained and analyzed on a flow cytometer using standard procedures. […] The percentage of S-phase cells in both groups increased from 25% in the control to 38% in both discodermolide- and taxol-treated cells.

[9] = tested on: GI-101A human breast cells; assay: Cell cycle analysis of GI-101A human breast cells; type: cell-based; conditions: 24 hours; for effect on cell cycle progression: GI-101A; for percentage of cells in G2 /M / percentage of S phase cells / percentage of cells in G1 phase: discodermolide 100 ng/ml; for percentage of cells in G2 /M: control 14%; for percentage of S phase cells: control 30%; for percentage of cells in G1 phase: control 56%
Experimental: (§5) Cell cycle studies were initiated in order to pinpoint a specific phase within the cell cycle in which discodermolide was exerting its antiproliferative effect. GI-101A human breast and A549 human lung cells were used as cell cycle targets to compare the effects of discodermolide and taxol on perturbation of the cell cycle. Cell cycle analyses were performed as follows: GI-101A and A549 cells were incubated at 37° C. in 10% CO2 in air in the presence or absence of varying concentrations of discodermolide or taxol (purchased from Molecular Probes, Eugene, Oreg.) for 48 hours. Cells were harvested, fixed in ethanol, and stained with 0.5 mg/ml of propidium iodide (P.I.) together with 0.1 mg/ml of RNase A. This procedure permeabilizes live cells and allows entry of P.I. to stain DNA. Stained preparations were analyzed on a Coulter EPICS ELITE with 488 nm excitation with the dead cells excluded by back-gating of P.I. preparations without detergent on forward and side scatter histograms. Fluorescence measurements and resulting DNA histograms were collected from at least 5,000 P.I. stained cells at an emission wavelength of 690 nm. Raw histogram data were further analyzed using a cell cycle analysis program (Multicycle, Phoenix Flow Systems).
Approximately 56% of the control cells comprise the G1 phase of the cell cycle, and 30% comprise the S phase. Only approximately 14% of cells are demonstrable in the G2 /M phase in asynchronous cultures at any one time mainly due to their high proliferative rate (FIG. 2A). At 24 hours post culture initiation with 100 ng/ml of discodermolide, the percentage of cells in G1 phase decreased to 22%. […] The percentage of cells in G1 decreased from 56% in the control to 27% in taxol-treated cultures.

A549 human lung cells = assay: Cell cycle analysis of A549 human lung cells; type: cell-based; conditions: 48 hours; for percentage of S phase cells (in words): control 19%; for percentage of cells in G2 /M / percentage of cells in G1: discodermolide 100 ng/ml; for percentage of cells in G2 /M: control 4%; for percentage of cells in G1: control 77%
Experimental: as §5
Discodermolide and taxol were compared for their effects on the proliferation of A549 human lung cells. Cell cultures were similarly initiated in the presence and absence of various concentrations of discodermolide or taxol and incubated at 37° C. in 10% CO2 in air for 48 hours. Cells were harvested and stained and analyzed on the flow cytometer as outlined above.

cancers = conditions: clinical trials; cited from earlier work
microtubules = conditions: literature; cited from earlier work
P388 = P388 IC50 (biological activity of octahydrodiscodermolide compounds); type: cell-based
Experimental: (§6) The octahydrodiscodermolide compounds were tested for biological activity and the following results obtained: […]

A549 = A549 IC50 (biological activity of octahydrodiscodermolide compounds); type: cell-based, human
Experimental: as §6

C=C/C=C\C(C)C(OC(N)=O)C(C)C(O)C(C)C/C(C)=C\C(C)C(O)C(C)/C=C\C(O)CC1OC(=O)C(C)C(O)C1C (single isomer, unassigned) [discodermolide]
CC50 [1]: > 3 µM
IC50 (Normal Fibroblast; Homo sapiens, Fibroblast): 0.015 µM
viable cell recovery (toxicity) (Normal Fibroblast; human foreskin fibroblast, concentrations up to 3.0 μM): not affected
LC50 (in words) (HCC-2998): particularly effective
LC50 (in words) (COLO 205): particularly effective
LC50 (in words) (NCI-H23): particularly effective
LC50 (in words) (SF 295): particularly effective
LC50 (in words) (SF 539): particularly effective
IC50 (Swiss 3TC; Mus musculus, Swiss 3TC proliferation, best response): 0.037 µM
LC50 (in words) (MDA-N): particularly effective
LC50 (in words) (MDA-MB-435): particularly effective
IC50 (BMSC 8.6; Mus musculus, BMSC 8.6 proliferation, best response): 0.084 µM
LC50 (in words) (M14): particularly effective
IC50 (BMSC 25.4; Mus musculus, BMSC 25.4 proliferation, best response): 0.059 µM
assembly of tubulin without MAPs or GTP (tubulin [2]): induced the assembly of tubulin
assembly reactions compared to taxol (tubulin [2]; especially at low temperatures): more dramatic compared to those observed with taxol
IC50 (EL-4 Thymoma): 0.03 µM
IC50 (BMSC 8.3; Mus musculus, BMSC 8.3 proliferation, best response): 0.05 µM
electron micrographs of polymers of tubulin (tubulin [3]): very similar characteristics, presence of polymers, microtubules, and sheets
EC50 (tubulin [4]): 2.7 µM
selective cytotoxicity, number of cell lines for GI50 (human tumor cell lines; approximately 60 cell lines tested, GI50): 32 cell lines
selective cytotoxicity, number of cell lines for TGI (human tumor cell lines; approximately 60 cell lines tested, TGI): 18 cell lines
cytotoxicity pattern (COMPARE algorithm) (human tumor cell lines; statistical analysis of selective toxicity pattern): matched that of several previously tested microtubule interactive agents, including the pattern generated by taxol
IC50 [5]: 0.0024 µM
minimal effective concentration ([6]; read-out: concentration at which immunofluorescence patterns appeared): 0.01 µM
Immunofluorescence patterns ([6]; cellular microtubules): remarkable rearrangement of cellular microtubules
extent of tubulin polymerization at 0° C. (bovine brain tubulin; 10 μM drug, 0° C.): almost complete
temperature at which tubulin polymerization/assembly began (bovine brain tubulin; 10 μM drug): 0 °C
stability of assembly upon return of the mixture to 0° C. (bovine brain tubulin; 10 μM drug): remained stable
mechanism of action in regard to stabilization of microtubules (bovine brain tubulin; compared to taxol): superior to that of taxol
IC50 (70Z/3 Pre-B): 0.003 µM
IC50 (F7 Fibroblast): 0.06 µM
IC50 [7]: 0.003 to 0.06 µM
percentage of cells in G2 /M [8]: 27%
percentage of S-phase cells [8]: 38%
percentage of cells in G1 [8]: 35%
effect on cell cycle progression [9]: block at G2 /M phase of the cell cycle
percentage of cells in G2 /M [9]: 38%
percentage of S phase cells [9]: 41%
percentage of cells in G1 phase [9]: 22%
percentage of S phase cells (in words) (A549 human lung cells): did not change significantly
percentage of cells in G2 /M (A549 human lung cells): 67%
percentage of cells in G1 (A549 human lung cells): 18%

CC(=O)O[C@H]1C(=O)[C@@]2(C)[C@H]([C@H](OC(=O)c3ccccc3)[C@]3(O)C[C@H](OC(=O)[C@H](O)[C@@H](NC(=O)c4ccccc4)c4ccccc4)C(C)=C1C3(C)C)[C@]1(OC(C)=O)CO[C@@H]1C[C@@H]2O [taxol, reference compound]
clinical effect (cancers): effective in the treatment of a wide range of cancers
electron micrographs of polymers of tubulin (tubulin [3]): very similar characteristics, presence of polymers, microtubules, and sheets; however, the taxol-inducedpolymers were somewhat longer than those induced with discodermolide
EC50 (tubulin [4]): 23 µM
IC50 [5]: 0.0021 µM
minimal effective concentration ([6]; only at much higher drug concentrations, read-out: concentration at which immunofluorescence changes occurred): 1 µM
temperature at which tubulin polymerization/assembly began (bovine brain tubulin; 10 μM drug): 10 °C
stability of assembly upon return of the mixture to 0° C. (bovine brain tubulin; 10 μM drug): modest decline
effect on microtubules (microtubules): stabilizes microtubules and inhibits their depolymerization to free tubulin
percentage of cells in G2 /M [8]: 28%
percentage of S-phase cells [8]: 38%
percentage of cells in G1 [8]: 34%
effect on cell cycle progression [9]: block at G2 /M
percentage of cells in G2 /M [9]: 37%
percentage of S phase cells [9]: 37%
percentage of cells in G1 phase [9]: 27%
percentage of S phase cells (in words) (A549 human lung cells): did not change significantly
percentage of cells in G2 /M (A549 human lung cells): 77%
percentage of cells in G1 (A549 human lung cells): 11%

Cyclosporin A [reference compound]
inhibition (Cyclosporin A) (Normal Fibroblast; human fibroblasts, up to 3 μM): no
inhibition (Cyclosporin A) (Swiss 3TC; 3T3, up to 1 μg/ml): no
inhibition (Cyclosporin A) (BMSC 8.6; BMSC lines, up to 1 μg/ml): no
inhibition (Cyclosporin A) (BMSC 25.4; BMSC lines, up to 1 μg/ml): no
inhibition (Cyclosporin A) (BMSC 8.3; BMSC lines, up to 1 μg/ml): no

octahydrodiscodermolide [20SG721]
IC50 (P388): 0.02 mg/L
IC50 (A549): 0.008 mg/L

octahydrodiscodermolide [20SG724]
IC50 (P388): 3.56 mg/L
IC50 (A549): > 5 mg/L
